Source: patent US20190111149A1, “ANTI-EGFR ANTIBODY DRUG CONJUGATE” (priority 2016, published 2019)
Bridge positions count the residues as written; N and C are the ends. Square brackets hold non-standard residues; d marks the D form. Ends that are not written are not given here. azido‑Phe = azido-phenylalanine, photoactivatable residue; Abu(3-Me-diazirin-3-yl) = CC1(CC[C@H](N)C(=O)O)N=N1; Bpa = N[C@@H](Cc1ccc(C(=O)c2ccccc2)cc1)C(=O)O

Target: Meditope enabled Trastuzumab
Test: BLI binding kinetics of meditope peptides to Meditope enabled Trastuzumab
Description: The binding kinetics of photo enabled meditopes to antibodies (e.g., meditope enabled Trastuzumab, T-mab, and P-mab) was tested.

Meditope enabled Trastuzumab, sequence (as listed by the source): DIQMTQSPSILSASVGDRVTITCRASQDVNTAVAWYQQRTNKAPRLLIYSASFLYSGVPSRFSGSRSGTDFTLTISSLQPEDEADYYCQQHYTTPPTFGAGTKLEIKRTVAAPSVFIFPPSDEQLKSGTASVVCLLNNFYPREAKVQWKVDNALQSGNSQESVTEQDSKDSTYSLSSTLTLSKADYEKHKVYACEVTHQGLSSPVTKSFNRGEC
Meditope enabled Trastuzumab, sequence (as listed by the source): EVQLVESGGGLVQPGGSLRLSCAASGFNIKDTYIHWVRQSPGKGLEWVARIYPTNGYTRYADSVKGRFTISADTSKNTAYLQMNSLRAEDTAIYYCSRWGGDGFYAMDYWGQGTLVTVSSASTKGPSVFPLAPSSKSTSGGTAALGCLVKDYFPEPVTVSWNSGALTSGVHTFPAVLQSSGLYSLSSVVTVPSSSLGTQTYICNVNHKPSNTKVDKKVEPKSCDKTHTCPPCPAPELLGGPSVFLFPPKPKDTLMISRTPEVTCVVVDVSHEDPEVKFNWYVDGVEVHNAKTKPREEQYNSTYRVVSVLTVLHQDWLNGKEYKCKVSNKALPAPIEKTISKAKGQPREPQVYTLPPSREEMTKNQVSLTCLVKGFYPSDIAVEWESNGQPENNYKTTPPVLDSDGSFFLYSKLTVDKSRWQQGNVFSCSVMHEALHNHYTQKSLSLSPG

Row | Substance | Kd (Conc. 50 nM) [nM] | Kd (Conc. 100 nM) [nM] | kon (Conc. 100 nM) [M⁻¹ s⁻¹] | Kd (Conc. 200 nM) [nM] | kon (Conc. 50 nM) [M⁻¹ s⁻¹] | kon (Conc. 200 nM) [M⁻¹ s⁻¹]
1 | Peptide 6: MMAD conjugated photoactivatable long cQFD photo-Met 9 (CQFDLSTR[Abu(3-Me-diazirin-3-yl)]LRCGGGK; disulfide 1-12 (inferred); also: MMAD conjugated) | < 0.001 | 2.51 | 3.65e+06 | 0.0191 | – | –
2 | Peptide 10: MMAD conjugated photoactivatable long cQFD azido-Phe 3 (CQ[azido‑Phe]DLSTRRLRCGGGK; disulfide 1-12 (inferred); also: MMAD conjugated) | < 0.001 | 18100 | 266 | 30200 | 816 | 537
3 | Peptide 12: MMAD conjugated photoactivatable long cQFD benzoyl-Phe 3 (CQ[Bpa]DLSTRRLRCGGGK; disulfide 1-12 (inferred); also: MMAD conjugated) | < 0.001 | 1.22 | 9.47e+06 | 73.3 | – | 286000
